# Source: patent publication EP4566597A1, “STATINS USEFUL IN THE TREATMENT OF SPLACHNIC VASCULAR DYSFUNCTIONS” (Hospital Clínic de Barcelona, priority 2023, dated 2025)
# Legend:
# phosphor-SMAD2 = assay: Western blot of PVECs treated in vitro with simvastatin; assay type: cell-based, human; details: FIG. 10
# Protocol: (§1) PVECs were seeded in 6-well plates in triplicates (for RNA collection) and in 60mm dishes (for protein collection) at a concentration of 6x10^4 cells/ml and grow for 24 h to obtain 70% confluency. PVECs from CT (n=3), CH (n=7) and CH-PVT (n=6) were then treated in vitro with 5 µM Simvastatin sodium salt (Sigma, #567022) for another 24 h and collected in either RLT or RIPA buffer for further analysis by means of quantitative real-time polymerase chain reaction (qPCR) or Western blotting, respectively. Its effect on mesenchymal markers and EndMT promoters, including TFs and all the molecules involved in EndMT initiation or progression previously described, was studied.
# Proteins were extracted with RIPA buffer complemented with Halt Protease & Phosphatase inhibitors (ThermoFisher) and total protein estimated using Bradford's Reagent (Bio-Rad) following manufacturer's instructions. […] Extracted proteins were analyzed by western blot. […] Images were acquired with a LAS-4000 apparatus (Fujifilm, TDI, Alcobendas, Spain) and protein expression was determined by densitometric analysis using the Image Studio Lite software (LI-COR). Results are expressed as relative densitometric values normalized to endogenous control β-actin. […]
# PVECs = assay: qPCR of EndMT markers in PVECs treated in vitro with Simvastatin; assay type: cell-based, human; details: 5 µM Simvastatin sodium salt, 24 h
# Protocol: For portal vein endothelia cell (PVEC) isolation, excess surrounding fat tissue was meticulously removed from the vein using sterile scissors, and any residual blood was washed away with DPBS. Subsequently, the tubular vein was opened to expose the inner part of the vein facing upward. Trypsin EDTA 0,05% (Gibco, #25300054) was then added on the upper surface and incubated for 5 minutes at 37°C. EGM-2 medium was then added abundantly over the tissue and a cell scrapper (TPP-Reactiva, #99002) was used to carefully scrap the surface of the inner wall several times, in order to detach the endothelial cells from the vein wall. The EGM-2 medium with cells in suspension was then centrifuged at 300 g for 5 minutes and pellet resuspended in 2 ml of fresh EGM-2. Cells were then seeded in a well from a 6-well plate pre-coated with human plasma fibronectin at a concentration of 1 µg/cm^2 (Sigma, #F0895), and fresh media changed every other day until confluence. On average, confluence was reached 10 days after isolation.
# In order to isolate PVECs from other cell types that were also scrapped during the initial tissue processing, cells were detached, stained with anti-CD31-FITC (BD Bioscience, #555445) and CD144 -BV786 (BD Bioscience, #565672) antibodies and FACS sorted in a FACS Aria II cell sorter (BD Biosciences) according to manufacturer's instructions. PVECs were selected as CD31^+ CD144^+ cells and seeded back to either a 6-well plate, T25 or T75 flasks, depending on the cell amount obtained. Once ECs reached confluency, a third of the cells were collected in RLT buffer (Qiagen) for subsequent RNA isolation (passage 1), a third was used for flow cytometry purity analysis and the final one third was passaged into a new 6-well plate. From this moment onwards, […] portal vein endothelial cells (PVECs) were expanded at a split ratio of 1:5 until senescence. At every passage, a fraction of the cells was cryopreserved for future experiments, while the rest was used for flow cytometry purity check, RLT collection and tube assays. Endothelial phenotype of PVECs was routinely monitored by cell morphology, flow cytometry, immunofluorescence and tube formation capacity.
# as §1
# Total RNA was isolated by RNeasy Micro and Mini kit (Qiagen) as stated above. First-strand cDNA was synthesized using the High Capacity cDNA Reverse Transcription Kit (Applied, Thermo Fisher, #4368814) according to the manufacturer's instructions. Quantitative real-time PCR (qPCR) was performed using PowerUp™ sybr® Green Master Mix (Applied Biosystems, #A25776) with technical duplicates using an AB1 Prism® 7900 HT Cycler (Applied Biosystems). PCR cycle parameters were as follows: 95 °C for 10' followed by 40 cycles at 95 °C for 15" and 60 °C for 1'. Results were obtained with the Sequence Detection System 3.2 software (Applied Biosystems) and further analyzed by the 2-ΔΔCt method. GAPDH was used as a loading control. Results are shown as fold-change.
# [1] = PVECs from CT, CH and CH-PVT, qPCR, FIG. 9
# [2] = PVEC from cirrhotic patients with or without PVT, qPCR
smiles,measurement,setting,value
"CCC(C)(C)C(=O)O[C@H]1C[C@@H](C)C=C2C=C[C@H](C)[C@H](CC[C@@H]3C[C@@H](O)CC(=O)O3)[C@H]21 [Simvastatin, [(1S,3R,7S,8S,8aR)-8-[2-[(2R,4R)-4-hydroxy-6-oxooxan-2-yl]ethyl]-3,7-dimethyl-1,2,3,7,8,8a-hexahydronaphthalen-1-yl] 2,2-dimethylbutanoate]",phosphor-SMAD2 protein levels,phosphor-SMAD2,capable of reducing
same,endothelial markers expression (Cd31),PVECs; [1],increasing
same,endothelial markers expression (NOs3),PVECs; [1],increasing
same,expression of mesenchymal markers (AIFM2),PVECs; [2],reduced
same,expression of mesenchymal markers (CDH2),PVECs; [2],reduced
same,expression of the adhesion molecule VCAM1,PVECs; [2],reduced
same,EndMT occurring in PVEC,"PVECs; overall finding, FIG. 9",can ameliorate
same,GTPase (Rac2) expression,PVECs; qPCR,decreasing
same,Serpine1 expression,PVECs; qPCR,decreasing
same,expression of transcription factor Snail1,PVECs; qPCR,reduced
